Data taken from US6916801B2, “7-Alkylidene-3-substituted-3-cephem-4-carboxylates as β-lactamase inhibitors” (Alamx, LLC, priority 2001, dated 2005).
Like-named read-outs stand apart in the source and are kept apart here.

Columns and labels:
[1] = biological target: TEM-1, a Class A penicillinase (Escherichia coli, UniProt P62593); test: beta-lactamase inhibition, relative IC50 analysis by nitrocefin hydrolysis (class A enzyme); format: biochemical; settings: class A β-lactamase; 10 minute incubation of enzyme (2.56 nM) and inhibitor; nitrocefin substrate
Method: (§1) Representative compounds of formula (I) were evaluated as inhibitors of the Class C β-lactamase of Enterobacter cloacae P-99, a cephalosporinase, and TEM-1, a Class A penicillinase, by relative IC50 analysis. The IC50 value represents the concentration of inhibitor required to effect a 50% loss of activity of free enzyme. The IC50 value of each compound was determined as follows. Following a 10 minute incubation of a dilute solution of enzyme (2.56 nM) and inhibitor (<0.64 mM), a […] of this incubation mixture was then further diluted into 1 mL nitrocefin solution, and the rate of hydrolysis was measured during a 1 minute period by monitoring the absorbance of nitrocefin as a function of time.

[2] = biological target: Class C β-lactamase of Enterobacter cloacae P-99, a cephalosporinase (Enterobacter cloacae, UniProt P05364); test: biochemical
Method: as §1

[3] = class C β-lactamase, 10 minute incubation of enzyme (2.56 nM) and inhibitor, nitrocefin substrate, read-out: P99 (IC50, μm)

Sequence of Class C β-lactamase of Enterobacter cloacae P-99, a cephalosporinase (P05364 21-381): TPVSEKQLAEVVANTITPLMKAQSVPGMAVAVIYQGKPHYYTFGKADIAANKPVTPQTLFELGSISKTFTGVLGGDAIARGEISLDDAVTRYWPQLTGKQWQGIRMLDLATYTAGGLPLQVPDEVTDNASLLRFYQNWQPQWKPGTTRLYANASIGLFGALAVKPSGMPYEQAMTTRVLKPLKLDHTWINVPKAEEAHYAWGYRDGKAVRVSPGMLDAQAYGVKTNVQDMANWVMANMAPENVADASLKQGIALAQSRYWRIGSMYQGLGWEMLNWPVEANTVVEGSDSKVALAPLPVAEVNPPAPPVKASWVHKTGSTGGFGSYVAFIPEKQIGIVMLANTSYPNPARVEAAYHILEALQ
Sequence of TEM-1, a Class A penicillinase (P62593 24-286 limits assumed): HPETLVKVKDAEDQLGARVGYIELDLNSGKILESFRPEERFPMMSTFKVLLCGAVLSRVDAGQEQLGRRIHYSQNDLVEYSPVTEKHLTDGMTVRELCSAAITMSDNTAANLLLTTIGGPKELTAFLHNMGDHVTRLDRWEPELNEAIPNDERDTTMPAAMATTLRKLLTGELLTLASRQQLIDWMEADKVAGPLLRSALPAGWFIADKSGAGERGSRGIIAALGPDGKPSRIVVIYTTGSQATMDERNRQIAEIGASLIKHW

Structure (SMILES)	IC50 [1] [nM]	IC50 [2] [nM]	IC50 [2, 3] [nM]
CS(=O)(=O)C1=C(C(=O)O)N2C(=O)C(=Cc3ccccn3)C2S(=O)(=O)C1 (centres unmarked) [Compound 11a, Sodium 1,1-dioxo-3-methylsulfonyl-7-(2′-pyridylmethylidine)-3-cephem-4-carboxylate]	7.6	90.7	–
CSC1=C(C(=O)O)N2C(=O)C(=Cc3ccccn3)C2S(=O)(=O)C1 (centres unmarked) [Compound 9a, Sodium 1,1-dioxo-3-methylsulfanyl-7-(2′-pyridylmethylidine)-3-cephem-4-carboxylate]	1060	59	–
O=C(O)C1=C(F)CS(=O)(=O)C2C(=Cc3ccccn3)C(=O)N12 (centres unmarked) [Compound 14a, Sodium 1,1-dioxo-3-fluoro-7-(2′-pyridylmethylidine)-3-cephem-4-carboxylate]	1840	–	11
NCCCNC(=O)C=CC1=C(C(=O)O)N2C(=O)C(=Cc3ccccn3)C2S(=O)(=O)C1 (centres unmarked) [Compound 21b, Sodium 3-{[N-(3″-aminopropyl)-2′-carbamoyl]vinyl)}-1,1-dioxo-7-(2′″-pyridylmethylidine-3-cephem-4-carboxylate]	1590	–	4200
O=C(O)C1=C(Br)CS(=O)(=O)C2C(=Cc3ccccn3)C(=O)N12 (centres unmarked) [Compound 7b, Sodium 3-bromo-1,1-dioxo-7-(2′-pyridylmethylidine)-3-cephem-4-carboxylate]	791	2.9	–
O=C(O)C1=CCS(=O)(=O)C2C(=Cc3ccccn3)C(=O)N12 (centres unmarked) [Compound 14b, Sodium 1,1-dioxo-7-(2 ′-pyridylmethylidine)-3-cephem-4-carboxylate]	18500	116	–
O=C(O)C1=C(S(=O)(=O)c2ccccc2)CS(=O)(=O)C2C(=Cc3ccccn3)C(=O)N12 (centres unmarked) [Compound 11b, Sodium 1,1-dioxo-3-phenylsulfonyl-7-(2′-pyridylmethylidine)-3-cephem-4-carboxylate]	9.4	174	–
O=C(O)C1=C(c2ccccc2)CS(=O)(=O)C2C(=Cc3ccccn3)C(=O)N12 (centres unmarked) [Compound 9d, Sodium 1,1-dioxo-3-phenyl-7-(2′-pyridylmethylidine)-3-cephem-4-carboxylate]	9140	–	38
O=C(C=CC1=C(C(=O)O)N2C(=O)C(=Cc3ccccn3)C2S(=O)(=O)C1)NC1CC1 (centres unmarked) [Compound 18a]	240	–	824
O=C(O)C1=C(Sc2ccccc2)CS(=O)(=O)C2C(=Cc3ccccn3)C(=O)N12 (centres unmarked) [Compound 9b, Sodium 1,1-dioxo-3-phenylsulfanyl-7-(2′-pyridylmethylidine)-3-cephem-4-carboxylate]	12	–	21.7
O=C(O)C1=C(c2cccs2)CS(=O)(=O)C2C(=Cc3ccccn3)C(=O)N12 (centres unmarked) [Compound 9c, Sodium 1,1-dioxo-7-(2′-pyridylmethylidine)-3-(thiophen-2′-yl)-3-cephem-4-carboxylate]	3540	43	–
O=C(C=CC1=C(C(=O)O)N2C(=O)C(=Cc3ccccn3)C2S(=O)(=O)C1)NO (centres unmarked) [Compound 18b, Sodium 3-(N-hydroxy-2′-carbamoylvinyl)-1,1-dioxo-7-(2″-pyridylmethylidine)-3-cephem-4-carboxylate]	7690	128	–
O=C(O)C1=C(I)CS(=O)(=O)C2C(=Cc3ccccn3)C(=O)N12 (centres unmarked) [Compound 7c, Sodium 1,1-dioxo-3-iodo-7-(2′-pyridylmethylidine)-3-cephem-4-carboxylate]	1280	4.7	–
NNC(=O)C=CC1=C(C(=O)O)N2C(=O)C(=Cc3ccccn3)C2S(=O)(=O)C1 (centres unmarked) [Compound 21a]	390	–	1100
O=C(O)C1=C(Cl)CS(=O)(=O)C2C(=Cc3ccccn3)C(=O)N12 (centres unmarked) [Compound 7a, Sodium 3-chloro-1,1-dioxo-7-(2′-pyridylmethylidine)-3-cephem-4-carboxylate]	1820	–	3
CN1CCN(C(=O)C=CC2=C(C(=O)O)N3C(=O)C(=Cc4ccccn4)C3S(=O)(=O)C2)CC1 (centres unmarked) [Compound 21c, Sodium 3-[3 ′-(4″-methylpiperazin-1″-yl)-3′-oxopropenyl]-1,1-dioxo-7-(2′″-puridylmethylidine)-3-cephem-4-carboxylate]	53	6340	–
